As usually defined, the EC50 is the concentration that produces a half-maximal response. High values mean weaker potency, low ones greater potency.

This test deals with T1, human GPR119 (Homo sapiens, UniProt Q8TDV5).
T1 sequence (Q8TDV5 1-308 limits assumed): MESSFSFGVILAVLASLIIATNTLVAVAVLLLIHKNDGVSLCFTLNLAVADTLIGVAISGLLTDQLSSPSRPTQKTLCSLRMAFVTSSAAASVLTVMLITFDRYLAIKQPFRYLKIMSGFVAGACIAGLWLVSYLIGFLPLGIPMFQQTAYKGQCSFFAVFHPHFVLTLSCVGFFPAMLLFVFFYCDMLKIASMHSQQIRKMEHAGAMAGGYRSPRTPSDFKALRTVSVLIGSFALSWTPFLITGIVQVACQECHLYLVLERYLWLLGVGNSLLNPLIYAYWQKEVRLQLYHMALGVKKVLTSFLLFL
The test can be described thus: Measurement of GPR119 signaling (cAMP assay; LANCE kit or HTRF) in HEK293 cells stably transfected with human GPR119. The following applies: agonist-stimulated cAMP in HEK293 cells expressing human GPR119. Format: cell-based. Here is the method: Measurement of GPR119 Signaling Using LANCE 384-Well cAMP Kit
The adenylate cyclase assay was constructed following the LANCE™ cAMP Kit (Perkin Elmer, AD0264) instructions. […] The reaction was stopped by incubating with the supplied detection buffer containing the europium chelate of the Eu-SA/Biotin-cAMP tracer for 3 hours. The assay was performed in duplicate in a 384 well plate for duplicate plates. Fluorescence at 665 nm was measured using a PHERAstar instrument. Basal activity was determined using a DMSO control and maximum response was defined as cAMP stimulation produced by an internal agonist control. Standard cAMP concentrations were assayed concurrently for conversion of fluorescence signal to cAMP level. The data was analyzed using 4-parameter curve fit in Microsoft Excel.
Measurement of GPR119 Signaling Using a Cyclic AMP (cAMP) Homogenous Time Resolved Fluorescence (HTRF) Assay
Chinese hamster ovary (CHO) cell lines stably transfected with the permissive guanine nucleotide binding protein alpha 15 (Gα15) and murine GPR119 were maintained in DMEM media containing FBS, penicillin-streptomycin, puromycin, and G418 (geneticin). […] Agonist activation of the GPR119 receptor was measured in receptor transfected cells described above, treated with compounds of this invention, using a commercial homogenous time resolved fluorescence (HTRF) kit for measurement of cAMP (CisBio, Bedford, Mass.). The assay was performed in 96-well half-volume plates (murine) or 384-well plates (human) following the manufacturers instructions. Briefly, suspended cells were incubated with a dose titration of test compound at RT for 60 min, lysed, and incubated with HTRF reagents for an additional 60 min. The plate was read using an Envision multilabel reader (Perkin Elmer) adjusted to read time resolved fluorescence and the cAMP concentrations were extrapolated from a cAMP calibration curve. […] The concentration of test compound required to stimulate a half-maximal response (EC50), and efficacy as compared to an internal agonist control, was determined from a sigmoidal 4-parameter curve fit of the resulting plot of normalized activity versus compound concentration.
For orientation: Cyclic AMP is a second messenger, typically raised through Gs and lowered through Gi signalling.
`CCCc1cnc(N2CCC([C@H]3C[C@H]3COCc3ccc(S(C)(=O)=O)cc3)CC2)nc1` [Example 22, 2-{4-[(1R,2R)-2-({[4-(methylsulfonyl)benzyl]oxy}methyl)cyclopropyl]piperidin-1-yl}-5-propylpyrimidine] displayed an EC50 of 0.3 nM.

For `CC(C)c1cnc(N2CCC([C@H]3C[C@H]3COCc3ccc(S(C)(=O)=O)cc3)CC2)nc1` [Example 23, 5-isopropyl-2-{4-[(1R,2R)-2-({[4-(methylsulfonyl)benzyl]oxy}methyl)cyclopropyl]piperidin-1-yl}pyrimidine], the concentration for a half-maximal effect (EC50) was 0.26 nM.

`CC(C)c1noc(N2CCC([C@H]3C[C@H]3COCc3ccc(S(C)(=O)=O)cc3)CC2)n1` [Example 24, 1-(3-isopropyl-1,2,4-oxadiazol-5-yl)-4-[(1R,2R)-2-({[4-(methylsulfonyl)benzyl]oxy}methyl)cyclopropyl]piperidine] displayed an EC50 of 0.92 nM. Next, `CC(C)c1noc(N2CCC([C@H]3C[C@H]3COCc3ccc(S(=O)(=O)C4CC4)cc3)CC2)n1` [Example 25]: 18 nM; `CCS(=O)(=O)c1ccc(COC[C@@H]2C[C@@H]2C2CCN(c3nc(C(C)C)no3)CC2)cc1` [Example 26, 4-[(1R,2R)-2-({[4-(ethylsulfonyl)benzyl]oxy}methyl)cyclopropyl]-1-(3-isopropyl-1,2,4-oxadiazol-5-yl)piperidine]: 3.1 nM. Next, `CS(=O)(=O)c1ccc(COC[C@@H]2C[C@@H]2C2CCN(c3nc(C4CC4)no3)CC2)cc1` [Example 27, 1-(3-cyclopropyl-1,2,4-oxadiazol-5-yl)-4-[(1R,2R)-2-({[4-(methylsulfonyl)benzyl]oxy}methyl)cyclopropyl]piperidine]: 3.2 nM. `O=S(=O)(c1ccc(COC[C@@H]2C[C@@H]2C2CCN(c3nc(C4CC4)no3)CC2)cc1)C1CC1` [Example 28, 1-(3-cyclopropyl-1,2,4-oxadiazol-5-yl)-4-[(1R,2R)-2-({[4-(cyclopropylsulfonyl)benzyl]oxy}methyl)cyclopropyl]piperidine] showed a half-maximal effective concentration (EC50) of 12 nM.

In turn, `CCS(=O)(=O)c1ccc(COC[C@@H]2C[C@@H]2C2CCN(c3nc(C4CC4)no3)CC2)cc1` [Example 29, 1-(3-cyclopropyl-1,2,4-oxadiazol-5-yl)-4-[(1R,2R)-2-({[4-(ethylsulfonyl)benzyl]oxy}methyl)cyclopropyl]piperidine] yielded a concentration giving a half-maximal response (EC50) of 2.3 nM. Next, `CCc1noc(N2CCC([C@H]3C[C@H]3COCc3ccc(S(C)(=O)=O)cc3)CC2)n1` [Example 30, 1-(3-ethyl-1,2,4-oxadiazol-5-yl)-4-[(1R,2R)-2-({[4-(methylsulfonyl)benzyl]oxy}methyl)cyclopropyl]piperidine]: 2.8 nM; `O=S(=O)(c1ccc(COC[C@@H]2C[C@@H]2C2CCN(c3nc(C4CCC4)no3)CC2)cc1)C1CC1` [Example 31, 1-(3-cyclobutyl-1,2,4-oxadiazol-5-yl)-4-[(1R,2R)-2-({[4-(cyclopropylsulfonyl)benzyl]oxy}methyl)cyclopropyl]piperidine]: 7 nM; `CCS(=O)(=O)c1ccc(COC[C@@H]2C[C@@H]2C2CCN(c3nc(C4CCC4)no3)CC2)cc1` [Example 32, 1-(3-cyclobutyl-1,2,4-oxadiazol-5-yl)-4-[(1R,2R)-2-({[4-(ethylsulfonyl)benzyl]oxy}methyl)cyclopropyl]piperidine]: 0.8 nM. Next, `CC(C)(C)OC(=O)N1CCC([C@H]2C[C@H]2COCc2ccc(S(C)(=O)=O)c(F)c2)CC1` [Example 33, tert-butyl 4-[(1R,2R)-2-({[3-fluoro-4-(methylsulfonyl)benzyl]oxy}methyl)cyclopropyl]piperidine-1-carboxylate]: 1.1 nM. Next, `CCS(=O)(=O)c1ccc(COC[C@@H]2C[C@@H]2C2CCN(C(=O)OC(C)(C)C)CC2)cc1F` [Example 34, tert-butyl 4-[(1R,2R)-2-({[4-(ethylsulfonyl)-3-fluorobenzyl]oxy}methyl)cyclopropyl]piperidine-1-carboxylate]: 0.1 nM; `CC(C)c1noc(N2CCC([C@H]3C[C@H]3COCc3ccc(S(C)(=O)=O)c(F)c3)CC2)n1` [Example 35, 4-[(1R,2R)-2-({[3-fluoro-4-(methylsulfonyl)benzyl]oxy}methyl)cyclopropyl]-1-(3-isopropyl-1,2,4-oxadiazol-5-yl)piperidine]: 0.2 nM. Molecule `CCc1noc(N2CCC([C@H]3C[C@H]3COCc3ccc(S(C)(=O)=O)c(F)c3)CC2)n1` [Example 36, 1-(3-ethyl-1,2,4-oxadiazol-5-yl)-4-[(1R,2R)-2-({[3-fluoro-4-(methylsulfonyl)benzyl]oxy}methyl)cyclopropyl]piperidine] came in with an EC50 of 1.9 nM. Then `CS(=O)(=O)c1ccc(COC[C@@H]2C[C@@H]2C2CCN(c3nc(C4CC4)no3)CC2)cc1F` [Example 37, 1-(3-cyclopropyl-1,2,4-oxadiazol-5-yl)-4-[(1R,2R)-2-({[3-fluoro-4-(methylsulfonyl)benzyl]oxy}methyl)cyclopropyl]piperidine], with 0.6 nM; and `CCS(=O)(=O)c1ccc(COC[C@@H]2C[C@@H]2C2CCN(c3nc(C(C)C)no3)CC2)cc1F` [Example 38, 4-[(1R,2R)-2-({[3-fluoro-4-(ethylsulfonyl)benzyl]oxy}methyl)cyclopropyl]-1-(3-isopropyl-1,2,4-oxadiazol-5-yl)piperidine], with 0.4 nM.

As to `CCS(=O)(=O)c1ccc(COC[C@@H]2C[C@@H]2C2CCN(c3nc(C4CC4)no3)CC2)cc1F` [Example 39, 1-(3-cyclopropyl-1,2,4-oxadiazol-5-yl)-4-[(1R,2R)-2-({[3-fluoro-4-(ethylsulfonyl)benzyl]oxy}methyl)cyclopropyl]piperidine], it took 0.6 nM to reach a half-maximal effect (EC50). Consider `CCc1cnc(N2CCC([C@H]3C[C@H]3COCc3ccc(S(C)(=O)=O)c(F)c3)CC2)nc1` [Example 40, 5-ethyl-2-{4-[(1R,2R)-2-({[3-fluoro-4-(methylsulfonyl)benzyl]oxy}methyl)cyclopropyl]piperidin-1-yl}pyrimidine], for which the EC50 turned out to be 0.2 nM. `CS(=O)(=O)c1ccc(COC[C@@H]2C[C@@H]2C2CCN(c3ncc(Cl)cn3)CC2)cc1F` [Example 41, 5-chloro-2-{4-[(1R,2R)-2-({[3-fluoro-4-(methylsulfonyl)benzyl]oxy}methyl)cyclopropyl]piperidin-1-yl}pyrimidine]: the EC50 was found to be 0.4 nM. Next, `CC(C)OC(=O)N1CCC([C@H]2C[C@H]2COCc2ccc(S(C)(=O)=O)c(F)c2)CC1` [Example 42, isopropyl 4-[(1R,2R)-2-({[3-fluoro-4-(methylsulfonyl)benzyl]oxy}methyl)cyclopropyl]piperidine-1-carboxylate]: 8.5 nM. Next, `CC1(OC(=O)N2CCC([C@H]3C[C@H]3COCc3ccc(S(C)(=O)=O)c(F)c3)CC2)CC1` [Example 43, 1-methylcyclopropyl 4-[(1R,2R)-2-({[3-fluoro-4-(methylsulfonyl)benzyl]oxy}methyl)cyclopropyl] piperidine-1-carboxylate]: 4.7 nM. Next, `CC(C)(C)OC(=O)N1CCC([C@H]2C[C@H]2COCc2cc(F)c(S(C)(=O)=O)c(F)c2)CC1` [Example 44, tert-butyl 4-[(1R,2R)-2-({[3,5-difluoro-4-(methylsulfonyl)benzyl]oxy}methyl)cyclopropyl]piperidine-1-carboxylate]: 14.8 nM; `CS(=O)(=O)c1c(F)cc(COC[C@@H]2C[C@@H]2C2CCN(c3ncc(Cl)cn3)CC2)cc1F` [Example 45, 5-chloro-2-{4-[(1R,2R)-2-({[3,5-difluoro-4-(methylsulfonyl)benzyl]oxy}methyl)cyclopropyl]piperidin-1-yl}pyrimidine]: 0.6 nM; `CCc1cnc(N2CCC([C@H]3C[C@H]3COCc3cc(F)c(S(C)(=O)=O)c(F)c3)CC2)nc1` [Example 46]: 0.4 nM.

`CS(=O)(=O)c1c(F)cc(COC[C@@H]2C[C@@H]2C2CCN(c3ncc(F)cn3)CC2)cc1F` [Example 47, 2-{4-[(1R,2R)-2-({[3,5-difluoro-4-(methylsulfonyl)benzyl]oxy}methyl)cyclopropyl]piperidin-1-yl}-5-fluoropyrimidine] displayed an EC50 of 3.2 nM.

The record behind these values is US9006228B2 (Merck Sharp & Dohme Corp., priority 2011, dated 2015).
